Test [1] concerns the target T1, HLA-A*1101 (Homo sapiens, UniProt P04439, A114D/D185E/E176A/F33Y/L180Q/S129P/T187R).
T1 construct: B-cell lines used are: CAA (A*0101), EKR (A*0301), BVR (A*1101), VIJF (A*2401); endogenous in cells; host or cells: B-cell line BVR
The test is described as follows: Competition based cellular binding assay, HLA-A*1101 (B-cell line BVR). Particulars: for HLA binding Affinity (Table 5): HLA type A11.

Test [2] addresses T1, HLA-A*1101. The test is described as follows: Stability of peptide-HLA complex, binding at 4° C. and 20° C., HLA-A*1101. The settings on record: for HLA binding Stability (Table 5): HLA type A11; for Peptide Binding Stability: HLA-A*1101, IC50 at 20° C. vs 4° C. As for the experimental part: (§1) Stability of other peptide-HLA complexes was preferably determined as follows. […] Peptides of >50% of the initial complexes was lost within 2 hours were considered unstable. […] The rest was designated as unstable peptide binding.
(§2) Peptides 8-11 residues in length were selected based on typical anchor residues for HLA-A*0101, A*0301, A*1101 and HLA-A*2401 (Rammensee H G et al). The capacity of peptides to bind was tested in a competition based cellular binding assay as previously described (van der Burg S H et al 1995). FL-labeled reference peptides were synthesized as Cys-derivative (van der Burg S H et al 1995). Fluorescence labeled reference peptides used were: YLEPAC(FL)AK (SEQ ID NO: 87) (HLA-A*0101) and KVFPC(FL)ALINK (SEQ ID NO: 88) (HLA-A*1101) (Sette A et al), KVFPC(FL)ALINK (SEQ ID NO: 89) (HLAA*0301) (van der Burg S H et al 1995) and RYLKC(FL)QQLL (SEQ ID NO: 90) (A*2401) (Dai L C et al). B-cell lines used are: CAA (A*0101), EKR (A*0301), BVR (A*1101), VIJF (A*2401). The relative binding capacity of the peptides is expressed as the peptide concentration to inhibit 50% (1050) of the binding of the reference peptide. […] Peptide stabilization for HLA-A*0201 was performed as previously described (van der Burg S H et al, 1996). Peptides of >50% of the initial complexes was lost within 2 hours were considered unstable. Stability of other peptide-HLA complexes was determined as follows. Peptide binding was performed at 4° C. and 20° C. and 1050 were determined. […] The rest was designated as unstable peptide binding.

Test [3] concerns the target T2, HLA-A*0301 (Homo sapiens, UniProt P04439).
T2 construct: B-cell lines used are: CAA (A*0101), EKR (A*0301), BVR (A*1101), VIJF (A*2401); endogenous in cells; host or cells: B-cell line EKR
The test is described as follows: Competition based cellular binding assay, HLA-A*0301 (B-cell line EKR). Particulars: for HLA binding Affinity (Table 5): HLA type A3.

The target of test [4] is T2, HLA-A*0301. The test is described as follows: Stability of peptide-HLA complex, binding at 4° C. and 20° C., HLA-A*0301. The settings on record: for HLA binding Stability (Table 5): HLA type A3; for Peptide Binding Stability: HLA-A*0301, IC50 at 20° C. vs 4° C. Here is the method:
as §1, §2

For test [5], the target named is T3, 20S immuno-proteasomes from mouse B-cell line (RMA) (Mus musculus, UniProt O35955+P28063+P28076).
T3 construct: 20S immuno-proteasomes were purified from a mouse B-cell line (RMA); endogenous in cells; host or cells: RMA cells; 20S proteasome purified from them
The test is described as follows: In vitro proteasome mediated digestion of 30-mers, mass spectrometry, immunoproteasome RMA. The test is classed as biochemical. The settings on record: 30 residue long precursor peptides. Here is the method:
(§3) In the context of the invention, “being inefficiently processed by a proteasome” preferably means that within the first hour of digestion by a proteasome less than 1% of total digested peptide is found. The processing by a proteasome is preferably assessed by incubating a purified proteasome, more preferably a human proteasome with a peptide comprising the potential CTL epitope (30 amino acid length approximately) in a proteasome digestion buffer during at least one hour at 37° C. The reaction is subsequently stopped by adding trifluoroacetic acid. Analysis of the digested peptides is performed with electrospray ionization mass spectrometry (see example 1). Even more preferably, the human proteasome is an immunoproteasome from B-LCL JY cells (Kessler J H et al. 2001).
(§4) 20S immuno-proteasomes were purified from a mouse B-cell line (RMA) and a human B-LCL cell line (JY) and 20S household proteasomes were purified from human tumor cell line (HeLa) as described (Kessler J H et al 2001). To assess kinetics, digestions were performed with different incubation periods as indicated. Briefly, peptides containing the (potential) CTL epitopes (30 mers, 20 μg) were incubated with 1 μg of purified proteasome at 37° C. for 1 h, 4 h and 24 h in 300 μl proteasome digestion buffer, trifluoroacetic acid (30 μl) was added to stop the digestion and samples were stored at −20° C. before mass spectrometric analysis. Electrospray ionization mass spectrometry was performed on a hybrid quadrupole time-of-flight mass spectromter, a Q-TOF (Micromass), equipped with an on-line nanoelectrospray interface with an approximate flow rate of […] as described (Kessler J H et al 2001). The peaks in the mass spectrum were searched in the digested precursor peptide using the Biolynx/proteins software (Micromass) supplied with the mass spectrometer. The intensity of the peaks in the mass spectra was used to establish the relative amounts of peptides generated after proteasome digestion. The relative amounts of the peptides are given as a percentage of the total amount of peptide digested by the proteasome at the indicated incubation time. Major cleavage sites are defined as more than >1% of total digested peptide within the first hour.

Test [6] concerns the target T4, 20S immuno-proteasomes from human B-LCL cell line (JY) (Homo sapiens, UniProt P28062+P28065+P40306).
T4 construct: purified from a mouse B-cell line (RMA) and a human B-LCL cell line (JY); endogenous in cells; host or cells: B-LCL JY cells; 20S proteasome purified from them
Description: In vitro proteasome mediated digestion of 30-mers, mass spectrometry, immunoproteasome JY. It is filed as biochemical. The settings on record: 30 residue long precursor peptides. As for the experimental part:
as §3, §4

[7] abbreviates: HLA-A*1101, IC50 category, read-out: Peptide Binding Affinity.

Where two headings read alike, the source gives them in different places. Where no end group is shown, it is not given here.

As for RTEEENLRK [p53 283-291], the “HLA binding Affinity (Table 5)” value at HLA-A*1101 [1] is “int”. The IC50 at HLA-A*1101 [1] (setting [7]) lay in the range of 5 to 15 µM. Besides, at HLA-A*1101 [2], the “HLA binding Stability (Table 5)” value was “+/− (Peptides that displayed IC50 at 20 °C of more than twice the IC50 at 4 °C but IC50 < 15 μM were considered to bind with intermediate stability.)” and the “Peptide Binding Stability” value was “+/− (Peptides that displayed IC50 at 20 °C of more than twice the IC50 at 4 °C but IC50 < 15 μM were considered to bind with intermediate stability.)”.
For the compound `CC(C)C[C@H](NC(=O)[C@@H](N)Cc1ccccc1)C(=O)N[C@@H](Cc1c[nH]cn1)C(=O)N[C@@H](CO)C(=O)NCC(=O)N[C@H](C(=O)N[C@@H](C)C(=O)N[C@@H](CCCCN)C(=O)O)[C@@H](C)O` [p53 113-120], the “HLA binding Affinity (Table 5)” value at HLA-A*0301 [3] is reported as “int”. For the same compound, on HLA-A*0301 [3] (HLA-A*0301, IC50 category, read-out: Peptide Binding Affinity), the IC50 is 5 to 15 µM. In addition, at HLA-A*0301 [4], the “HLA binding Stability (Table 5)” value is “− (The rest was designated as unstable peptide binding.)” and the “Peptide Binding Stability” value was “+/− (Peptides that displayed IC50 at 20 °C of more than twice the IC50 at 4 °C but IC50 < 15 μM were considered to bind with intermediate stability.)”. In test [5], the “Proteasomal Cleavage of C-terminus, IP (RMA)” value was “+ (Major cleavage sites are defined as more than >1% of total digested peptide within the first hour)”. Moreover, the “Proteasomal Cleavage of C-terminus, IP (JY)” value in test [6] is “+ (Major cleavage sites are defined as more than >1% of total digested peptide within the first hour)”.
For GQSTSRHKK [p53 374-382], at HLA-A*1101 [1], the IC50 fell in the range of 5 to 15 µM and the “HLA binding Affinity (Table 5)” value is “int”. Also, on HLA-A*1101 [2], the “HLA binding Stability (Table 5)” value was “+/− (Peptides that displayed IC50 at 20 °C of more than twice the IC50 at 4 °C but IC50 < 15 μM were considered to bind with intermediate stability.)” and the “Peptide Binding Stability” value was “+/− (Peptides that displayed IC50 at 20 °C of more than twice the IC50 at 4 °C but IC50 < 15 μM were considered to bind with intermediate stability.)”.
As for `CC(C)C[C@H](NC(=O)[C@H](Cc1c[nH]cn1)NC(=O)[C@H](CO)NC(=O)[C@H](CO)NC(=O)[C@H](Cc1c[nH]cn1)NC(=O)[C@H](C)NC(=O)[C@@H](N)CCCNC(=N)N)C(=O)N[C@@H](CCCCN)C(=O)O` [p53 363-370], the “HLA binding Affinity (Table 5)” value was “high” on HLA-A*0301 [3] and “int” on HLA-A*1101 [1]. Moreover, at HLA-A*0301 [3] (HLA-A*0301, IC50 category), the “Peptide Binding Affinity” value is “high”. The IC50 at HLA-A*1101 [1] (setting [7]) lay within 5 to 15 µM. Moreover, the “HLA binding Stability (Table 5)” value on HLA-A*0301 [4] was “+ (Stable peptides displayed IC50 at 20 °C that deviated <2 times of the IC50 at 4° C.)”; at HLA-A*1101 [2], “+/− (Peptides that displayed IC50 at 20 °C of more than twice the IC50 at 4 °C but IC50 < 15 μM were considered to bind with intermediate stability.)”. Further, the “Peptide Binding Stability” value at HLA-A*0301 [4] was “+ (Stable peptides displayed IC50 at 20 °C that deviated <2 times of the IC50 at 4° C.)”; at HLA-A*1101 [2] it was “+/− (Peptides that displayed IC50 at 20 °C of more than twice the IC50 at 4 °C but IC50 < 15 μM were considered to bind with intermediate stability.)”.
With `C[C@@H](O)[C@H](N)C(=O)N[C@@H](CO)C(=O)N[C@@H](CO)C(=O)N[C@@H](CO)C(=O)N1CCC[C@H]1C(=O)N[C@@H](CCC(N)=O)C(=O)N1CCC[C@H]1C(=O)N[C@@H](CCCCN)C(=O)O` [p53 312-319], the “HLA binding Affinity (Table 5)” value on HLA-A*1101 [1] is “high”. At HLA-A*1101 [1] (HLA-A*1101, IC50 category), the “Peptide Binding Affinity” value is reported as “high”. Also, on HLA-A*1101 [2], the “HLA binding Stability (Table 5)” value was “+/− (Peptides that displayed IC50 at 20 °C of more than twice the IC50 at 4 °C but IC50 < 15 μM were considered to bind with intermediate stability.)” and the “Peptide Binding Stability” value was “+/− (Peptides that displayed IC50 at 20 °C of more than twice the IC50 at 4 °C but IC50 < 15 μM were considered to bind with intermediate stability.)”.
On to `C[C@@H](O)[C@H](NC(=O)[C@@H](N)CC(N)=O)C(=O)N[C@@H](CO)C(=O)N[C@@H](CO)C(=O)N[C@@H](CO)C(=O)N1CCC[C@H]1C(=O)N[C@@H](CCC(N)=O)C(=O)N1CCC[C@H]1C(=O)N[C@@H](CCCCN)C(=O)N[C@@H](CCCCN)C(=O)O` [p53 311-320], for which the “HLA binding Affinity (Table 5)” value at HLA-A*1101 [1] was “high”. Also, the “Peptide Binding Affinity” value at HLA-A*1101 [1] (HLA-A*1101, IC50 category) is given as “high”. At HLA-A*1101 [2], the “HLA binding Stability (Table 5)” value is “+/− (Peptides that displayed IC50 at 20 °C of more than twice the IC50 at 4 °C but IC50 < 15 μM were considered to bind with intermediate stability.)” and the “Peptide Binding Stability” value is “+/− (Peptides that displayed IC50 at 20 °C of more than twice the IC50 at 4 °C but IC50 < 15 μM were considered to bind with intermediate stability.)”.
In the case of `C[C@@H](O)[C@H](NC(=O)[C@@H](N)CC(N)=O)C(=O)N[C@@H](CO)C(=O)N[C@@H](CO)C(=O)N[C@@H](CO)C(=O)N1CCC[C@H]1C(=O)N[C@@H](CCC(N)=O)C(=O)N1CCC[C@H]1C(=O)N[C@@H](CCCCN)C(=O)O` [p53 311-319], on HLA-A*1101 [1], the “HLA binding Affinity (Table 5)” value is “high”. Further, the “Peptide Binding Affinity” value on HLA-A*1101 [1] (HLA-A*1101, IC50 category) is on record as “high”. Further, at HLA-A*1101 [2], the “HLA binding Stability (Table 5)” value was “+/− (Peptides that displayed IC50 at 20 °C of more than twice the IC50 at 4 °C but IC50 < 15 μM were considered to bind with intermediate stability.)” and the “Peptide Binding Stability” value was “+/− (Peptides that displayed IC50 at 20 °C of more than twice the IC50 at 4 °C but IC50 < 15 μM were considered to bind with intermediate stability.)”.
With `CC(C)C[C@H](NC(=O)[C@H](Cc1ccccc1)NC(=O)CNC(=O)[C@H](CC(C)C)NC(=O)[C@@H](N)CCCNC(=N)N)C(=O)N[C@@H](Cc1c[nH]cn1)C(=O)N[C@@H](CO)C(=O)NCC(=O)N[C@H](C(=O)N[C@@H](C)C(=O)N[C@@H](CCCCN)C(=O)O)[C@@H](C)O` [p53 110-120], at HLA-A*0301 [3] (HLA-A*0301, IC50 category), the “Peptide Binding Affinity” value was “high”. Moreover, the “Peptide Binding Stability” value on HLA-A*0301 [4] was “+ (Stable peptides displayed IC50 at 20 °C that deviated <2 times of the IC50 at 4° C.)”. Moreover, the “Proteasomal Cleavage of C-terminus, IP (RMA)” value in test [5] is given as “+ (Major cleavage sites are defined as more than >1% of total digested peptide within the first hour)”. Further, the “Proteasomal Cleavage of C-terminus, IP (JY)” value in test [6] was “+ (Major cleavage sites are defined as more than >1% of total digested peptide within the first hour)”.

The values are drawn from patent US8663646B2, “P53 peptide vaccine” (priority 2007, dated 2014).
